Eight compounds from patent US20220273629A1, “METHODS OF TREATING DISORDERS ASSOCIATED WITH ELEVATED LEVELS OF ANTIBODIES THAT INTERACT WITH THE NMDA RECEPTOR” (Aptinyx Inc., priority 2019, published 2022) can be followed below.

For test [1], the system named is Schaffer collateral-CA1 synapses in hippocampal slices. Nature of the test: Hippocampal slice LTP (fEPSP slope) with focal NR1 antibody application. In kind it is cell-based, rat. As to conditions: 500 nM bath-applied, FIG. 5B. The source says: Two extracellular recording patch pipettes were placed at equal distances (˜500 μm) on either side of a single bipolar stainless steel stimulating electrode (Frederick Haer Inc.). A single test stimulus was applied each 30 seconds, to evoke field excitatory postsynaptic potentials (fEPSPs) recorded simultaneously at the Control and Antibody (Ab) recording sites. […]
LTP was induced by the stimulation of Schaffer collateral axons with high frequency theta burst stimulus trains. The fEPSP slope was measured before and after the induction of LTP in hippocampal slices treated with control, control +NR1Ab, Compound A, or Compound A +NR1Ab.
The experimental protocol to test the effects of focal application of NR1 antibodies on synaptic transmission and long-term potentiation (LTP) of synaptic strength at Schaffer collateral-CA1 synapses in hippocampal slices in vitro is illustrated in FIG. 5A below. […] A single test stimulus was applied each 30 seconds, to evoke field excitatory postsynaptic potentials (fEPSPs) recorded simultaneously at the Control and Antibody (Ab) recording sites. […] Statistics were determined by Student's t-test for unpaired data.

Test [2] deals with T1, NR2B:R393A mutant receptors (Homo sapiens, UniProt Q13224, R393A).
T1 construct: expressed in transfected cells; transient β-lactamase-hGluN2B R393A
T1 sequence (Q13224 27-1484 R393A, other chains not shown): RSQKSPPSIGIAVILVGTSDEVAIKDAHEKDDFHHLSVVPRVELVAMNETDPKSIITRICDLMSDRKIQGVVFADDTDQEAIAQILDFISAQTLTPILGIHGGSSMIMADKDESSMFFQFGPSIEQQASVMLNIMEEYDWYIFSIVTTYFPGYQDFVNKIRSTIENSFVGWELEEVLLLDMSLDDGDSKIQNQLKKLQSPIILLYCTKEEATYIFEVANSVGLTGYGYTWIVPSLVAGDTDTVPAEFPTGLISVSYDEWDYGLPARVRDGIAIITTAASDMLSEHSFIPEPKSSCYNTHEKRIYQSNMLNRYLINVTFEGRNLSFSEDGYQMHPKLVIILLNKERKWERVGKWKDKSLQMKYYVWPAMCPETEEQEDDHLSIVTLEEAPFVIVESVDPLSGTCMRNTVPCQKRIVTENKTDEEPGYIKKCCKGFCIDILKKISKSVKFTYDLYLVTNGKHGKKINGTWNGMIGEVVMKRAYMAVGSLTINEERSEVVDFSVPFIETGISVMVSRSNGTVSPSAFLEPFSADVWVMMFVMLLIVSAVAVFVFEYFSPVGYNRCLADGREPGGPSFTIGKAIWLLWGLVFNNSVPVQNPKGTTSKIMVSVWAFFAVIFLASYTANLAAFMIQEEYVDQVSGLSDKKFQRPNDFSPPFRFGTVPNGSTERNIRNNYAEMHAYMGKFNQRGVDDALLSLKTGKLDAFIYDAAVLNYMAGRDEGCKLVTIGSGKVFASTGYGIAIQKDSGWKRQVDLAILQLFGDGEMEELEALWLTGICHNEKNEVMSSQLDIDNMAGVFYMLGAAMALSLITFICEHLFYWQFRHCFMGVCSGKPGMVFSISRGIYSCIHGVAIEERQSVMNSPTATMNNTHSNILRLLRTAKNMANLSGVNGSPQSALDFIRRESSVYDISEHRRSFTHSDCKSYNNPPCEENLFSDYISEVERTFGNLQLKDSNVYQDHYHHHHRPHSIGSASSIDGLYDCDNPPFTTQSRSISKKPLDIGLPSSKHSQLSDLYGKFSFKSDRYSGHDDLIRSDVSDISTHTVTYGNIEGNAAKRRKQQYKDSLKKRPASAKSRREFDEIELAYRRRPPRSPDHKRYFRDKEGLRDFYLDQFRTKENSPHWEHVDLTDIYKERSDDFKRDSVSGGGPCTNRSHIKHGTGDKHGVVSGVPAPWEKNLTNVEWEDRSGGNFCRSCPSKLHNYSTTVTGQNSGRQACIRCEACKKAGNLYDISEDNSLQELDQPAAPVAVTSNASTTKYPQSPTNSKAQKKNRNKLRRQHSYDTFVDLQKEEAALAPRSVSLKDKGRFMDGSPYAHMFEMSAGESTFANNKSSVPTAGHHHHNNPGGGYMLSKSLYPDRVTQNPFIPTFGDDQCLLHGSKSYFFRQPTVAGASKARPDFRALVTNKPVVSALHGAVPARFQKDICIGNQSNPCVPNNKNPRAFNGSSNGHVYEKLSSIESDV
Description: β-lactamase assay, NMDAR 2B trafficking in mutant R393A receptors. The class given is cell-based. As to conditions: FIG. 6A-6C; for ability to restore cell surface NR2B expression in NR2B:R393A mutant following ANRE patient serum IgG: after exposure to ANRE patient serum IgG. As to the method: (§1) Un-transfected (Untfx) cells were used as a negative control for surface β-lactamase activity. Human IgG (Sigma-Aldrich) at a concentration of 0.5 mg/ml was used as a negative control for non-specific receptor internalization.
(§2) HEK293 cells stably expressing human GluN1 and PSD-95 were transiently transfected with hGluN2B tagged at the N-terminus with the β-lactamase enzyme using X-tremeGENE9 transfection reagent (Sigma-Aldrich). Transfected cultures were maintained in media containing ketamine (0.18 mg/ml) to minimize excitotoxicity. Twenty-four hours after transfection, cells were re-plated into poly-d-lysine coated 96-well plates at a concentration of 30,000 cells/well. The following day, cells were washed with buffer (HBSS, 10 mM HEPES, […]) and then incubated with a 1:50 dilution of purified patient IgG for 45 min at 37° C. The cells were washed once with buffer and then incubated for 15 min at 37° C. with buffer ±each of compound A, B and C. Nitrocefin in buffer (100 mM final; Cayman Chemical) ±each of compound A, B and C was added to each well and absorbance at 486 nm was measured every minute for 30 min at 37° C. in a plate reader. Un-transfected (Untfx) cells were used as a negative control for surface β-lactamase activity. Human IgG (Sigma-Aldrich) at a concentration of 0.5 mg/ml was used as a negative control for non-specific receptor internalization. Slopes of optical density are graphed as fold change over vehicle, mean ±SEM (n=8-12). Statistics were determined by one-way ANOVA compared to antibody only (Ab).

Test [3] concerns the target T2, NR2B surface expression in hNR1/PSD95/NR2B expressing HEK cells (Homo sapiens, UniProt Q13224).
T2 construct: expressed in transfected cells; transient β-lactamase-hGluN2B
Description: β-lactamase assay, restoration of NR2B surface expression after purified ANRE patient serum IgG. The class given is cell-based. The following applies: 45 min purified patient serum IgG 1:50, then 15 min compound at 10 fM, 1 pM, 100 pM, 10 nM; FIG. 1 / FIG. 3. As to the method: (§3) Un-transfected (Untfx) cells were used as a negative control for surface β-lactamase activity.
(§4) hNR1/PSD95/NR2B-expressing HEK cells tagged with a β-lactamase enzyme at the N-terminus of NR2B are incubated with a 1:50 dilution of purified patient serum IgG for 45 min. The cells are washed with buffer to remove antibodies and then incubated for 15 min in the presence or absence of each of compounds A, B, or C at concentrations of 10 fM, 1 pM, 100 pM and 10 nM respectively. After said time, the membrane impermeable substrate nitrocefin and ±each of compounds A, B, and C are added. The NR2B N-terminal β-lactamase cleaves nitrocefin, resulting in a change of absorbance to 486 nm. The absorbance at 486 nm is measured every minute for 30 min.
Slopes of optical density are graphed as fold change over the vehicle. N=8; Statistics were determined by one-way ANOVA compared to antibody only (Ab). * p≤0.05, ** p≤0.01, *** p≤0.001, **** p≤0.0001 (FIG. 1).
as §1
hNR1/PSD95/NR2B expressing HEK cells tagged with a β-lactamase enzyme at the N-terminus of NR2B are incubated with purified patient serum IgG (1:50 dilution) for 45 min. The cells are washed to remove antibodies and then incubated for 15 min in the presence or absence of each of compounds A, B, C, D, E, F, G, and H at concentrations of 10 fM, 1 pM, 100 pM and 10 nM respectively. After said time, nitrocefin in buffer and ±each of compounds A-H are added and the absorbance at 486 nm is measured every minute for 30 min.
Slopes of optical density are graphed as fold change over the vehicle. N=8-12; Statistics were determined by one-way ANOVA compared to antibody only (Ab). * p≤0.05, ** p≤0.01, *** p≤0.001, **** p≤0.0001 (FIG. 3).
as §2

Test [4] deals with T2, NR2B surface expression in hNR1/PSD95/NR2B expressing HEK cells. Description: β-lactamase assay, restoration of NR2B surface expression after ANRE patient CSF. In kind it is cell-based. The following applies: after CSF (1:10 dilution) from ANRE patients N1, N2, N3; FIG. 2. As to the method:
In this example hNR1/PSD95/NR2B expressing HEK cells tagged with a β-lactamase enzyme at the N-terminus of NR2B are incubated with CSF (1:10 dilution) from each of three individual ANRE patients (N1, N2, and N3).
as §2, with “The cells were washed once with buffer and then incubated for 15 min at 37° C. with buffer ±each of compound A, B and C. Nitrocefin in buffer (100 mM final; Cayman Chemical) ±each of compound A, B and C was added to each well and absorbance at 486 nm was measured every minute for 30 min at 37° C. in a plate reader.” left out

The target is the same in test [5]. Description: β-lactamase assay, NR2B surface expression, compound alone (absence of Ab), wild-type. In kind it is cell-based. As to conditions: for surface NR2B expression in wild-type NR2B receptors relative to untreated vehicle controls: no antibody, varying concentrations, FIG. 6A-6C. On the procedure:
as §3, §4, §1, §2

The target is the same in test [6]. Nature of the test: β-lactamase assay, restoration of NR2B surface expression after purified ANRE patient serum IgG. In kind it is cell-based. The following applies: varying concentrations, FIG. 6A-6C.

T2 sequence (Q13224 27-1484, other chains not shown): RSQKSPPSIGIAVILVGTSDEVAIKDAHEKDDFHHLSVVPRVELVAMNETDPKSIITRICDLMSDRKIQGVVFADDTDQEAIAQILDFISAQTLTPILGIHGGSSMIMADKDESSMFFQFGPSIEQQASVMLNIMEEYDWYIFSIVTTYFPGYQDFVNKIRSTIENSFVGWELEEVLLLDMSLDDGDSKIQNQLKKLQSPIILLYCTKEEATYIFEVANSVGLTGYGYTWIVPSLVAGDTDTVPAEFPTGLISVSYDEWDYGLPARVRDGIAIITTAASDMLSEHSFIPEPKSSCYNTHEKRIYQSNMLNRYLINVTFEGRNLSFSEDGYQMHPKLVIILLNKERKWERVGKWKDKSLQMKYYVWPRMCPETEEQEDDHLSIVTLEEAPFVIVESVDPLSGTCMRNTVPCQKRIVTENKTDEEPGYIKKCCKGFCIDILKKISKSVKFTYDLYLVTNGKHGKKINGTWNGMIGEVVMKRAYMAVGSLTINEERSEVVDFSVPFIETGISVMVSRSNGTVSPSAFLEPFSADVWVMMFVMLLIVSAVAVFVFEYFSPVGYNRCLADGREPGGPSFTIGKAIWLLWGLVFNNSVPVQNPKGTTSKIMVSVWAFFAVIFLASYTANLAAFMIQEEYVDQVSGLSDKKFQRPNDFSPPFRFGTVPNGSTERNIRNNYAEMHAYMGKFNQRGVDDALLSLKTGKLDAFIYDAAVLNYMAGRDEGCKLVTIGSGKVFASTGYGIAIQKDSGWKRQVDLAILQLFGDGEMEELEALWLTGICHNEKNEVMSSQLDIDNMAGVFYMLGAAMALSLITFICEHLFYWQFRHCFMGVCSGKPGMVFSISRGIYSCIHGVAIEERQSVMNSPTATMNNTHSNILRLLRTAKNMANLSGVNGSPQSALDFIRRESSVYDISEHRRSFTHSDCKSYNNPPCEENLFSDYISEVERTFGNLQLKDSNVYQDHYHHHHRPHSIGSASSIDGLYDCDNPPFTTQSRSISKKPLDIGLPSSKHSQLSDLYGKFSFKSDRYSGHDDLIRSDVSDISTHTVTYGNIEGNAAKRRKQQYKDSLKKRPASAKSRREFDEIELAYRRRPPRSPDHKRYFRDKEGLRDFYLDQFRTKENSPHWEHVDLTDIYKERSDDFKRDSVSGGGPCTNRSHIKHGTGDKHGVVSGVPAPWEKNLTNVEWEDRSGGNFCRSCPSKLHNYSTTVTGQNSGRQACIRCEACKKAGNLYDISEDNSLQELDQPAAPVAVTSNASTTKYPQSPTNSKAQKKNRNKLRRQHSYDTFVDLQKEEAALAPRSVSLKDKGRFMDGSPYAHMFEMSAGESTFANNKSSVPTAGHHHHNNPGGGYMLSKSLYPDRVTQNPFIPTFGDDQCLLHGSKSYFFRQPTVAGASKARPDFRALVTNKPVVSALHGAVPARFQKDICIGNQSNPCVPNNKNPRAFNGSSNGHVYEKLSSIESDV

As to `CC(C)C(=O)N1CCC[C@]12CN([C@H](C(N)=O)[C@@H](C)O)C2=O` [Compound A], the “rescue of Schaffer collateral-CA1 LTP from acute NMDAR1 antibody effects” value in test [1] (NR1 antibody 1:20 dilution) is reported as “rescues Schaffer collateral-CA1 LTP”. For the same compound, the “magnitude of LTP relative to control” value in test [1] (after high frequency stimulation, no antibody) is recorded as “increased the magnitude of LTP”. In test [2], the “ability to restore cell surface NR2B expression in NR2B:R393A mutant” value is “abolishes the ability” and the “ability to restore cell surface NR2B expression in NR2B:R393A mutant following ANRE patient serum IgG” value is listed as “abolishes the ability”. In addition, the “restoration of NR2B surface expression to "No Ab" control level” value in test [3] was “restore NR2B surface expression to levels observed in the “No Ab” control”. Also, the “restoration of cell surface NR2B expression to vehicle levels” value (“restoration … to vehicle levels” for short) in test [4] is “restored cell surface NR2B expression to vehicle levels”. The “increase in cell surface NR2B expression” value in test [5] (1 pM, in the absence of Ab, positive control, wild-type) is recorded as around 20%. The “surface NR2B expression in wild-type NR2B receptors relative to untreated vehicle controls” value in test [5] is “increase surface NR2B expression”. Further, in test [6], the “restoration of NR2B surface expression to "No Ab" control level, wild-type NR2B (Example 6)” value is recorded as “restore NR2B surface expression to levels observed in the “No Ab” control”.

Turning to `CC(C)CN1CCC[C@@]12CN([C@H](C(N)=O)[C@@H](C)O)C2=O` [F], the “restoration of NR2B surface expression to "No Ab" control level” value in test [3] was “failed to restore NR2B surface expression”.

`CC(C)CN1[C@]2(CC[C@]13CNC3=O)CNC2=O` [H]: in test [3], the “restoration of NR2B surface expression to "No Ab" control level” value is given as “failed to restore NR2B surface expression”.

`CC(C)CN1[C@@]2(CC[C@@]13CNC3=O)CNC2=O` [G]: the “restoration of NR2B surface expression to "No Ab" control level” value in test [3] is “failed to restore NR2B surface expression”.

Turning to `COc1ccc(CN2C[C@]3(CCNC(=O)C3)C2=O)cc1` [Compound D], the “restoration of NR2B surface expression to "No Ab" control level” value in test [3] is given as “failed to restore NR2B surface expression”.

As for `COc1ccc(CN2C[C@@]3(CCNC(=O)C3)C2=O)cc1` [C], in test [2], the “ability to restore cell surface NR2B expression in NR2B:R393A mutant” value is recorded as “abolishes the ability” and the “ability to restore cell surface NR2B expression in NR2B:R393A mutant following ANRE patient serum IgG” value is “abolishes the ability”. The “restoration of NR2B surface expression to "No Ab" control level” value in test [3] is given as “restore NR2B surface expression to levels observed in the “No Ab” control”. In addition, the “restoration … to vehicle levels” value in test [4] is “restored cell surface NR2B expression to vehicle levels”. Further, the “surface NR2B expression in wild-type NR2B receptors relative to untreated vehicle controls” value in test [5] was “increase surface NR2B expression”. In test [6], the “restoration of NR2B surface expression to "No Ab" control level, wild-type NR2B (Example 6)” value is recorded as “restore NR2B surface expression to levels observed in the “No Ab” control”.

Regarding `CC(C)CN1CCC[C@]12CN([C@H](C(N)=O)[C@@H](C)O)C2=O` [E], the “restoration of NR2B surface expression to "No Ab" control level” value in test [3] is given as “failed to restore NR2B surface expression”.

On to `CC(C)C(=O)N1CCC[C@@]12CN([C@H](C(N)=O)[C@@H](C)O)C2=O` [B], for which, in test [2], the “ability to restore cell surface NR2B expression in NR2B:R393A mutant” value is reported as “abolishes the ability” and the “ability to restore cell surface NR2B expression in NR2B:R393A mutant following ANRE patient serum IgG” value is reported as “abolishes the ability”. In test [3], the “restoration of NR2B surface expression to "No Ab" control level” value is “restore NR2B surface expression to levels observed in the “No Ab” control”. In addition, the “restoration … to vehicle levels” value in test [4] is listed as “restored cell surface NR2B expression to vehicle levels”. In addition, the “surface NR2B expression in wild-type NR2B receptors relative to untreated vehicle controls” value in test [5] was “increase surface NR2B expression”. For the same compound, the “restoration of NR2B surface expression to "No Ab" control level, wild-type NR2B (Example 6)” value in test [6] is “restore NR2B surface expression to levels observed in the “No Ab” control”.
